For assay [1], the system named is MDA-MB-231. The experiment in a line: drug sensitivity score (DSS), cell viability CellTiter-Glo; higher = more sensitive; extreme values may be limits of the assay. The following applies: 72 h. A general note: In ATP-based viability assays light output follows the ATP content of the culture.
The test system of assay [2] is MDA-MB-231. The experiment in a line: drug sensitivity score (DSS), cytotoxicity CellTox Green; higher = more cytotoxic; extreme values may be limits of the assay. As to conditions: 72 h.

SMILES strings stand for the structures.
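Throughout, for drug sensitivity score (DSS), cytotoxicity CellTox Green: DSS summarises each dose–response curve by combining IC50, EC50, maximal inhibition and efficacy across drug concentrations.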

For the compound `CC(C)C[C@H](NC(=O)[C@H](Cc1ccccc1)NC(=O)c1cnccn1)B(O)O` [Bortezomib], the drug sensitivity score in assay [1] (shRNA: shPPFIA1_1) turned out to be 21.3 DSS; in assay [1] (shRNA: shScramble) it was 23.1 DSS; in assay [2] (shRNA: shPPFIA1_1), 26.8 DSS; in assay [2] (shRNA: shScramble), 24.3 DSS.

Regarding `COc1cc(Nc2c(C#N)cnc3cc(OCCCN4CCN(C)CC4)c(OC)cc23)c(Cl)cc1Cl` [Bosutinib], the drug sensitivity score in assay [1] (shRNA: shPPFIA1_1) was 6.3 DSS; in assay [1] (shRNA: shScramble) it was 9.3 DSS; in assay [2] (shRNA: shPPFIA1_1), 6.2 DSS; in assay [2] (shRNA: shScramble), 6.3 DSS.

With `COc1cc(N2CCC(N3CCN(C)CC3)CC2)ccc1Nc1ncc(Cl)c(Nc2ccccc2P(C)(C)=O)n1` [Brigatinib], the drug sensitivity score in assay [1] (shRNA: shPPFIA1_1) worked out at 6.4 DSS; in assay [1] (shRNA: shScramble), 0.7 DSS; in assay [2] (shRNA: shPPFIA1_1), 1.8 DSS; in assay [2] (shRNA: shScramble) it was 3.6 DSS.

For `Cc1cc2c(F)c(Oc3ncnn4cc(OC[C@@H](C)O)c(C)c34)ccc2[nH]1` [Brivanib], the drug sensitivity score in assay [1] (shRNA: shPPFIA1_1), in assay [1] (shRNA: shScramble), in assay [2] (shRNA: shPPFIA1_1) and in assay [2] (shRNA: shScramble) was 0 DSS in each case.

With `CCC/C=C/C=C/C(=O)O[C@H]1/C(=C/C(=O)OC)C[C@H]2C[C@H]([C@@H](C)O)OC(=O)C[C@H](O)C[C@@H]3C[C@H](OC(C)=O)C(C)(C)[C@](O)(C[C@@H]4C/C(=C/C(=O)OC)C[C@H](/C=C/C(C)(C)[C@]1(O)O2)O4)O3` [Bryostatin 1], the drug sensitivity score in assay [1] (shRNA: shPPFIA1_1) was found to be 17.2 DSS; in assay [1] (shRNA: shScramble), 3.3 DSS; in assay [2] (shRNA: shPPFIA1_1), 0 DSS; in assay [2] (shRNA: shScramble) it was 0 DSS.

`Nc1cc(C(F)(F)F)c(-c2cc(N3CCOCC3)nc(N3CCOCC3)n2)cn1` [Buparlisib]: the drug sensitivity score was 0.9 DSS in assay [1] (shRNA: shPPFIA1_1), 6.2 DSS in assay [1] (shRNA: shScramble), 1.4 DSS in assay [2] (shRNA: shPPFIA1_1) and 0 DSS in assay [2] (shRNA: shScramble).

Take `CS(=O)(=O)OCCCCOS(C)(=O)=O` [Busulfan]: the drug sensitivity score turned out to be 0 DSS in assay [1] (shRNA: shPPFIA1_1), 0.2 DSS in assay [1] (shRNA: shScramble), 0 DSS in assay [2] (shRNA: shPPFIA1_1) and 0 DSS in assay [2] (shRNA: shScramble).

Regarding `O=C(O)CCCCC(CCSCc1ccccc1)SCc1ccccc1` (stereo not given) [CPI-613], the drug sensitivity score in assay [1] (shRNA: shPPFIA1_1), in assay [1] (shRNA: shScramble), in assay [2] (shRNA: shPPFIA1_1) and in assay [2] (shRNA: shScramble) was 0 DSS throughout.

On to `C#Cc1cccc(Nc2ncnc3cc(OC)c(OCCCCCCC(=O)NO)cc23)c1` [CUDC-101], for which the drug sensitivity score in assay [1] (shRNA: shPPFIA1_1) is 6.2 DSS; in assay [1] (shRNA: shScramble), 9.8 DSS; in assay [2] (shRNA: shPPFIA1_1) it was 10.2 DSS; in assay [2] (shRNA: shScramble), 7.4 DSS.

With `CN(C)c1cc2c(cc1Sc1nc3c(N)nccc3n1CCNCC(C)(C)C)OCO2` [CUDC-305], the drug sensitivity score was 8.7 DSS in assay [1] (shRNA: shPPFIA1_1), 13.6 DSS in assay [1] (shRNA: shScramble), 3.4 DSS in assay [2] (shRNA: shPPFIA1_1) and 3.4 DSS in assay [2] (shRNA: shScramble).

Take `COc1ccc(-c2nc(N3CCOCC3)c3sc(CN(C)c4ncc(C(=O)NO)cn4)cc3n2)cn1` [CUDC-907]: the drug sensitivity score in assay [1] (shRNA: shPPFIA1_1) is 24 DSS; in assay [1] (shRNA: shScramble), 28 DSS; in assay [2] (shRNA: shPPFIA1_1), 23.5 DSS; in assay [2] (shRNA: shScramble), 24.5 DSS.

With `Cc1nc(N)sc1-c1ccnc(Nc2ccc(N3CCOCC3)cc2)n1` [CYC-116], the drug sensitivity score was 0.2 DSS in assay [1] (shRNA: shPPFIA1_1), 4.8 DSS in assay [1] (shRNA: shScramble), 0 DSS in assay [2] (shRNA: shPPFIA1_1) and 0 DSS in assay [2] (shRNA: shScramble).

As to `CO[C@H]1C(=O)[C@]2(C)[C@@H](OC)C[C@H]3OC[C@@]3(OC(C)=O)[C@H]2[C@H](OC(=O)c2ccccc2)[C@]2(O)C[C@H](OC(=O)[C@H](O)[C@@H](NC(=O)OC(C)(C)C)c3ccccc3)C(C)=C1C2(C)C` [Cabazitaxel], the drug sensitivity score amounted to 16.4 DSS in assay [1] (shRNA: shPPFIA1_1), 11.5 DSS in assay [1] (shRNA: shScramble), 0 DSS in assay [2] (shRNA: shPPFIA1_1) and 9.7 DSS in assay [2] (shRNA: shScramble).

`COc1cc2nccc(Oc3ccc(NC(=O)C4(C(=O)Nc5ccc(F)cc5)CC4)cc3)c2cc1OC` [Cabozantinib]: the drug sensitivity score turned out to be 3.2 DSS in assay [1] (shRNA: shPPFIA1_1), 1.1 DSS in assay [1] (shRNA: shScramble), 0 DSS in assay [2] (shRNA: shPPFIA1_1) and 0 DSS in assay [2] (shRNA: shScramble).

Turning to `CC[C@@]1(O)C(=O)OCc2c1cc1n(c2=O)Cc2cc3ccccc3nc2-1` [Camptothecin], the drug sensitivity score is 0.8 DSS in assay [1] (shRNA: shPPFIA1_1), 10.4 DSS in assay [1] (shRNA: shScramble), 2 DSS in assay [2] (shRNA: shPPFIA1_1) and 0.7 DSS in assay [2] (shRNA: shScramble).

As to `C=CC(=O)Nc1cc2c(Nc3ccc(F)c(Cl)c3)ncnc2cc1OCCCN1CCOCC1` [Canertinib], the drug sensitivity score stood at 2.8 DSS in assay [1] (shRNA: shPPFIA1_1), 4.3 DSS in assay [1] (shRNA: shScramble), 3 DSS in assay [2] (shRNA: shPPFIA1_1) and 7.7 DSS in assay [2] (shRNA: shScramble).

For `CCCCCOC(=O)Nc1nc(=O)n([C@@H]2O[C@H](C)[C@@H](O)[C@H]2O)cc1F` [Capecitabine], the drug sensitivity score in assay [1] (shRNA: shPPFIA1_1), in assay [1] (shRNA: shScramble), in assay [2] (shRNA: shPPFIA1_1) and in assay [2] (shRNA: shScramble) was 0 DSS throughout.

`O=C(O)C1(C(=O)O)CCC1.[NH2-].[NH2-].[Pt+2]` [Carboplatin]: the drug sensitivity score in assay [1] (shRNA: shPPFIA1_1), in assay [1] (shRNA: shScramble), in assay [2] (shRNA: shPPFIA1_1) and in assay [2] (shRNA: shScramble) was 0 DSS throughout.

In the case of `CC(C)C[C@H](NC(=O)[C@H](CCc1ccccc1)NC(=O)CN1CCOCC1)C(=O)N[C@@H](Cc1ccccc1)C(=O)N[C@@H](CC(C)C)C(=O)[C@@]1(C)CO1` [Carfilzomib], the drug sensitivity score in assay [1] (shRNA: shPPFIA1_1) amounted to 16.5 DSS; in assay [1] (shRNA: shScramble), 21.4 DSS; in assay [2] (shRNA: shPPFIA1_1), 21.9 DSS; in assay [2] (shRNA: shScramble), 22.1 DSS.

Take `O=NN(CCCl)C(=O)NCCCl` [Carmustine]: the drug sensitivity score in assay [1] (shRNA: shPPFIA1_1), in assay [1] (shRNA: shScramble), in assay [2] (shRNA: shPPFIA1_1) and in assay [2] (shRNA: shScramble) was 0 DSS in each case.

Turning to `COc1cc2c(Oc3ccc4[nH]c(C)cc4c3F)ncnc2cc1OCCCN1CCCC1` [Cediranib], the drug sensitivity score was found to be 7 DSS in assay [1] (shRNA: shPPFIA1_1), 7.5 DSS in assay [1] (shRNA: shScramble), 0 DSS in assay [2] (shRNA: shPPFIA1_1) and 0 DSS in assay [2] (shRNA: shScramble).

Regarding `Cc1ccc(-c2cc(C(F)(F)F)nn2-c2ccc(S(N)(=O)=O)cc2)cc1` [Celecoxib], the drug sensitivity score in assay [1] (shRNA: shPPFIA1_1), in assay [1] (shRNA: shScramble), in assay [2] (shRNA: shPPFIA1_1) and in assay [2] (shRNA: shScramble) was 0 DSS each time.

For the compound `CCS(=O)(=O)N1CCN(c2ccc(Nc3ncc(C(N)=O)c(NC4CC4)n3)cc2)CC1` [Cerdulatinib], the drug sensitivity score in assay [1] (shRNA: shPPFIA1_1) was 0 DSS; in assay [1] (shRNA: shScramble), 2.9 DSS; in assay [2] (shRNA: shPPFIA1_1) it was 0 DSS; in assay [2] (shRNA: shScramble), 0 DSS.

Regarding `Cc1cc(Nc2ncc(Cl)c(Nc3ccccc3S(=O)(=O)C(C)C)n2)c(OC(C)C)cc1C1CCNCC1` [Ceritinib], the drug sensitivity score in assay [1] (shRNA: shPPFIA1_1) was 0 DSS; in assay [1] (shRNA: shScramble), 1.2 DSS; in assay [2] (shRNA: shPPFIA1_1) it was 0.9 DSS; in assay [2] (shRNA: shScramble), 0 DSS.

On to `O=C(O)CCCc1ccc(N(CCCl)CCCl)cc1` [Chlorambucil], for which the drug sensitivity score in assay [1] (shRNA: shPPFIA1_1), in assay [1] (shRNA: shScramble), in assay [2] (shRNA: shPPFIA1_1) and in assay [2] (shRNA: shScramble) was 0 DSS in each case.

With `CCN(CC)CCCC(C)Nc1ccnc2cc(Cl)ccc12` (stereo not given) [Chloroquine], the drug sensitivity score in assay [1] (shRNA: shPPFIA1_1) amounted to 8.7 DSS; in assay [1] (shRNA: shScramble), 9.4 DSS; in assay [2] (shRNA: shPPFIA1_1), 5.2 DSS; in assay [2] (shRNA: shScramble) it was 7.2 DSS.

With `CC(C)[C@H]1C(=O)N[C@@H](CCCNC(=N)N)C(=O)NCC(=O)N[C@@H](CC(=O)O)C(=O)N[C@H](Cc2ccccc2)C(=O)N1C` [Cilengitide], the drug sensitivity score in assay [1] (shRNA: shPPFIA1_1), in assay [1] (shRNA: shScramble), in assay [2] (shRNA: shPPFIA1_1) and in assay [2] (shRNA: shScramble) was 0 DSS each time.

Take `N.N.[Cl][Pt][Cl]` [Cisplatin]: the drug sensitivity score in assay [1] (shRNA: shPPFIA1_1) came out at 2 DSS; in assay [1] (shRNA: shScramble), 7.6 DSS; in assay [2] (shRNA: shPPFIA1_1), 4 DSS; in assay [2] (shRNA: shScramble), 3.5 DSS.

`Nc1nc(Cl)nc2c1ncn2[C@H]1C[C@H](O)[C@@H](CO)O1` [Cladribine]: the drug sensitivity score amounted to 0 DSS in assay [1] (shRNA: shPPFIA1_1), 3.3 DSS in assay [1] (shRNA: shScramble), 0 DSS in assay [2] (shRNA: shPPFIA1_1) and 0 DSS in assay [2] (shRNA: shScramble).

For the compound `Nc1nc(Cl)nc2c1ncn2[C@@H]1O[C@H](CO)[C@@H](O)[C@@H]1F` [Clofarabine], the drug sensitivity score was determined as 0 DSS in assay [1] (shRNA: shPPFIA1_1), 6.5 DSS in assay [1] (shRNA: shScramble), 0 DSS in assay [2] (shRNA: shPPFIA1_1) and 0 DSS in assay [2] (shRNA: shScramble).

The values are drawn from the supplement of paper PMC10920090.
